Assay results as given in PubChem BioAssay (NCI).
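Five concentrations, 48 hours, 96-well plates. TGI: concentration producing complete growth inhibition.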

Columns and labels:
Assay in all cases: growth of human tumour cells (NCI), 48 h
ACHN renal = test system: ACHN renal
A498 renal = test system: A498 renal
HOP-92 NSCLC = test system: HOP-92 NSCLC
HCT-15 colon = test system: HCT-15 colon
M14 melanoma = test system: M14 melanoma
SK-OV-3 ovarian = test system: SK-OV-3 ovarian
COLO 205 colon = test system: COLO 205 colon
UACC-62 melanoma = test system: UACC-62 melanoma
HL-60(TB) leukemia = test system: HL-60(TB) leukemia
XF 498 CNS = test system: XF 498 CNS
IGROV1 ovarian = test system: IGROV1 ovarian
DMS 114 small cell lung = test system: DMS 114 small cell lung
KM20L2 colon = test system: KM20L2 colon
SNB-19 CNS = test system: SNB-19 CNS
SK-MEL-28 melanoma = test system: SK-MEL-28 melanoma
SNB-78 CNS = test system: SNB-78 CNS
CCRF-CEM leukemia = test system: CCRF-CEM leukemia
SF-539 CNS = test system: SF-539 CNS
U251 CNS = test system: U251 CNS
M19-MEL melanoma = test system: M19-MEL melanoma
SNB-75 CNS = test system: SNB-75 CNS
SN12C renal = test system: SN12C renal
HOP-18 NSCLC = test system: HOP-18 NSCLC
RPMI-8226 leukemia = test system: RPMI-8226 leukemia
RXF 393 renal = test system: RXF 393 renal
LXFL 529 NSCLC = test system: LXFL 529 NSCLC
LOX IMVI melanoma = test system: LOX IMVI melanoma
NCI-H460 lung = test system: NCI-H460 lung
NCI-H23 lung = test system: NCI-H23 lung
RXF-631 renal = test system: RXF-631 renal
K-562 leukemia = test system: K-562 leukemia
DMS 273 small cell lung = test system: DMS 273 small cell lung
MOLT-4 leukemia = test system: MOLT-4 leukemia
OVCAR-4 ovarian = test system: OVCAR-4 ovarian
HCT-116 colon = test system: HCT-116 colon
CAKI-1 renal = test system: CAKI-1 renal
EKVX NSCLC = test system: EKVX NSCLC
786-0 renal = test system: 786-0 renal
OVCAR-5 ovarian = test system: OVCAR-5 ovarian
SF-268 CNS = test system: SF-268 CNS
DLD-1 colon = test system: DLD-1 colon
UACC-257 melanoma = test system: UACC-257 melanoma
OVCAR-3 ovarian = test system: OVCAR-3 ovarian
NCI-H522 lung = test system: NCI-H522 lung
HT29 colon = test system: HT29 colon
MALME-3M melanoma = test system: MALME-3M melanoma
SW-620 colon = test system: SW-620 colon
A549 NSCLC = test system: A549 NSCLC
TK-10 renal = test system: TK-10 renal
HOP-62 NSCLC = test system: HOP-62 NSCLC
KM12 colon = test system: KM12 colon
SF-295 CNS = test system: SF-295 CNS
OVCAR-8 ovarian = test system: OVCAR-8 ovarian
UO-31 renal = test system: UO-31 renal
SR leukemia = test system: SR leukemia
NCI-H226 lung = test system: NCI-H226 lung
HCC-2998 colon = test system: HCC-2998 colon
SK-MEL-2 melanoma = test system: SK-MEL-2 melanoma
SK-MEL-5 melanoma = test system: SK-MEL-5 melanoma

With C/C(Cc1ccccc1)=N\NC(N)=S the TGI (ACHN renal) was > 100 µM, the TGI (A498 renal) was > 100 µM and the TGI (HOP-92 NSCLC) was > 100 µM. For the same compound, the TGI (HCT-15 colon) was > 100 µM, the TGI (M14 melanoma) was > 100 µM and the TGI (SK-OV-3 ovarian) was > 100 µM. The TGI (COLO 205 colon) was > 100 µM, the TGI (UACC-62 melanoma) was > 100 µM and the TGI (HL-60(TB) leukemia) was > 100 µM. The TGI (XF 498 CNS) was > 100 µM, the TGI (IGROV1 ovarian) was > 100 µM and the TGI (DMS 114 small cell lung) was > 100 µM. For the same compound, the TGI (KM20L2 colon) was > 100 µM, the TGI (SNB-19 CNS) was > 100 µM and the TGI (SK-MEL-28 melanoma) was > 100 µM. For the same compound, the TGI (SNB-78 CNS) was > 100 µM, the TGI (CCRF-CEM leukemia) was > 100 µM and the TGI (SF-539 CNS) was > 100 µM. For the same compound, the TGI (U251 CNS) was > 100 µM, the TGI (M19-MEL melanoma) was > 100 µM and the TGI (SNB-75 CNS) was > 100 µM. For the same compound, the TGI (SN12C renal) was > 100 µM, the TGI (HOP-18 NSCLC) was > 100 µM and the TGI (RPMI-8226 leukemia) was > 100 µM. For the same compound, the TGI (RXF 393 renal) was > 100 µM, the TGI (LXFL 529 NSCLC) was > 100 µM and the TGI (LOX IMVI melanoma) was > 100 µM. For the same compound, the TGI (NCI-H460 lung) was > 100 µM, the TGI (NCI-H23 lung) was > 100 µM and the TGI (RXF-631 renal) was > 100 µM. For the same compound, the TGI (K-562 leukemia) was > 100 µM, the TGI (DMS 273 small cell lung) was > 100 µM and the TGI (MOLT-4 leukemia) was > 100 µM. For the same compound, the TGI (OVCAR-4 ovarian) was > 100 µM.

For CC(=O)c1sc(Nc2nnc(-c3ccc(-c4nnc(Nc5nc(C)c(C(C)=O)s5)o4)cc3)o2)nc1C, the TGI (ACHN renal) was > 100 µM, the TGI (HCT-116 colon) was > 100 µM and the TGI (A498 renal) was > 100 µM. For the same compound, the TGI (CAKI-1 renal) was > 10 µM, the TGI (EKVX NSCLC) was > 100 µM and the TGI (786-0 renal) was > 100 µM. The TGI (HOP-92 NSCLC) was > 100 µM, the TGI (HCT-15 colon) was > 100 µM and the TGI (OVCAR-5 ovarian) was > 10 µM. The TGI (M14 melanoma) was > 100 µM, the TGI (SK-OV-3 ovarian) was > 10 µM and the TGI (SF-268 CNS) was > 100 µM. The TGI (COLO 205 colon) was > 100 µM, the TGI (UACC-62 melanoma) was > 100 µM and the TGI (HL-60(TB) leukemia) was > 100 µM. The TGI (DLD-1 colon) was > 100 µM, the TGI (IGROV1 ovarian) was > 100 µM and the TGI (DMS 114 small cell lung) was > 100 µM. For the same compound, the TGI (KM20L2 colon) was > 100 µM, the TGI (SNB-19 CNS) was > 100 µM and the TGI (UACC-257 melanoma) was > 100 µM. The TGI (SK-MEL-28 melanoma) was > 100 µM, the TGI (SNB-78 CNS) was > 100 µM and the TGI (CCRF-CEM leukemia) was > 100 µM. For the same compound, the TGI (OVCAR-3 ovarian) was > 100 µM, the TGI (NCI-H522 lung) was > 10 µM and the TGI (U251 CNS) was > 100 µM. The TGI (HT29 colon) was > 100 µM, the TGI (MALME-3M melanoma) was > 100 µM and the TGI (SN12C renal) was > 100 µM. The TGI (SW-620 colon) was > 100 µM, the TGI (A549 NSCLC) was > 10 µM and the TGI (HOP-18 NSCLC) was > 100 µM. For the same compound, the TGI (RPMI-8226 leukemia) was > 100 µM, the TGI (RXF 393 renal) was > 100 µM and the TGI (TK-10 renal) was > 100 µM. The TGI (HOP-62 NSCLC) was > 100 µM, the TGI (KM12 colon) was > 10 µM and the TGI (LXFL 529 NSCLC) was > 100 µM. For the same compound, the TGI (LOX IMVI melanoma) was > 100 µM, the TGI (SF-295 CNS) was > 100 µM and the TGI (NCI-H460 lung) was > 100 µM. The TGI (OVCAR-8 ovarian) was > 100 µM, the TGI (NCI-H23 lung) was > 100 µM and the TGI (UO-31 renal) was > 10 µM. For the same compound, the TGI (K-562 leukemia) was > 100 µM, the TGI (SR leukemia) was > 100 µM and the TGI (DMS 273 small cell lung) was > 100 µM. The TGI (MOLT-4 leukemia) was > 100 µM, the TGI (NCI-H226 lung) was > 100 µM and the TGI (OVCAR-4 ovarian) was > 100 µM. For the same compound, the TGI (HCC-2998 colon) was > 100 µM.

In the case of COc1ccc(NC(=O)/C(Cc2cc(=O)oc3cc(O)ccc23)=N\NC(C)(C)C)c(OC)c1, the TGI (ACHN renal) is reported as > 100 µM, the TGI (HCT-116 colon) is reported as > 100 µM and the TGI (A498 renal) is reported as > 100 µM. The TGI (CAKI-1 renal) was > 100 µM, the TGI (EKVX NSCLC) was > 100 µM and the TGI (786-0 renal) was > 100 µM. The TGI (HOP-92 NSCLC) was > 100 µM, the TGI (SK-MEL-2 melanoma) was > 100 µM and the TGI (HCT-15 colon) was > 100 µM. For the same compound, the TGI (OVCAR-5 ovarian) was > 100 µM, the TGI (M14 melanoma) was > 100 µM and the TGI (SK-OV-3 ovarian) was > 100 µM. For the same compound, the TGI (SF-268 CNS) was > 100 µM, the TGI (COLO 205 colon) was > 100 µM and the TGI (UACC-62 melanoma) was > 100 µM. For the same compound, the TGI (HL-60(TB) leukemia) was > 100 µM, the TGI (XF 498 CNS) was > 100 µM and the TGI (IGROV1 ovarian) was > 100 µM. For the same compound, the TGI (KM20L2 colon) was > 100 µM, the TGI (SNB-19 CNS) was > 100 µM and the TGI (UACC-257 melanoma) was > 100 µM. For the same compound, the TGI (SK-MEL-28 melanoma) was > 100 µM, the TGI (SNB-78 CNS) was > 100 µM and the TGI (CCRF-CEM leukemia) was > 100 µM. The TGI (OVCAR-3 ovarian) was > 100 µM, the TGI (SF-539 CNS) was > 100 µM and the TGI (NCI-H522 lung) was > 100 µM. For the same compound, the TGI (U251 CNS) was > 100 µM, the TGI (HT29 colon) was > 100 µM and the TGI (MALME-3M melanoma) was > 100 µM. For the same compound, the TGI (M19-MEL melanoma) was > 100 µM, the TGI (SN12C renal) was > 100 µM and the TGI (SW-620 colon) was > 100 µM. The TGI (A549 NSCLC) was > 100 µM, the TGI (RPMI-8226 leukemia) was > 100 µM and the TGI (TK-10 renal) was > 100 µM. For the same compound, the TGI (HOP-62 NSCLC) was > 100 µM, the TGI (KM12 colon) was > 100 µM and the TGI (LXFL 529 NSCLC) was > 100 µM. The TGI (LOX IMVI melanoma) was > 100 µM, the TGI (SF-295 CNS) was > 100 µM and the TGI (NCI-H460 lung) was > 100 µM. For the same compound, the TGI (OVCAR-8 ovarian) was > 100 µM, the TGI (NCI-H23 lung) was > 100 µM and the TGI (UO-31 renal) was > 100 µM. The TGI (K-562 leukemia) was > 100 µM, the TGI (SR leukemia) was > 100 µM and the TGI (SK-MEL-5 melanoma) was > 100 µM. The TGI (MOLT-4 leukemia) was > 100 µM, the TGI (NCI-H226 lung) was > 100 µM and the TGI (OVCAR-4 ovarian) was > 100 µM. For the same compound, the TGI (HCC-2998 colon) was > 100 µM.
